Test results reported in patent US12303594B2, “Antimicrobial and anti-inflammatory compositions” (The Texas A&M University System, priority 2015, dated 2025).
≈ marks a conversion by molar mass, not a printed value.

Tests used:
[1] = tested on: P. aeruginosa strain PA HP3; assay: Disc diffusion assay; assay type: cell-based, Pseudomonas aeruginosa; settings: MH agar with 100 μg/mL ibuprofen vs MH agar control
Experimental: A method for disc diffusion assay includes the following: The activity of five antibiotics (amikacin, aztreonam, ceftazidime, colistin, and tobramycin) was assessed against three strains of Pseudomonas aeruginosa (PAM57-15, PAO1 and PA HP3) using a disc diffusion assay. A single colony of P. aeruginosa was picked and grown to an optical density at 650 nm (OD650) of 0.4. […] Discs containing known quantities of the five previously mentioned antibiotics were placed on the two types of agar plates and incubated for 18 hours. The diameters of the zones of inhibition were measured and compared between the MH and MH+IBU plates.

[2] = tested on: Pseudomonas aeruginosa (strain PA HP3); assay: Minimum inhibitory concentration (MIC); assay type: cell-based; settings: alone
Experimental: (§1) The final concentrations of aztreonam, ceftazidime and vancomycin were 0.06, 0.13, 0.25, 0.5, 1, 2, 4, 8, 16, 32, 64, and 128 μg/ml. The plates were incubated overnight at 37° C. […] Each triplicate was performed at least twice.

[3] = tested on: Pseudomonas aeruginosa (strain PA HP3); assay: Checkerboard assay with ibuprofen; assay type: cell-based; settings: for MIC: Pseudomonas aeruginosa, read-out: MIC (with ibuprofen); for MIC (with ibuprofen): with 50 μg/mL of ibuprofen
PA HP3 = assay: 24 hour end point colony forming units (CFU) count study; assay type: cell-based, Pseudomonas aeruginosa; settings: P<0.0001
Experimental: A 24 hour end point colony forming units (CFU) count study was performed. […] Increasing concentrations of aztreonam and ceftazidime were loaded horizontally into each well of two separate 96-well plates starting with zero at the top of the plate. […] The plates were set on a platform shaker at 100 rpm in a 37° C. warm room for 24 hours. After the 24-hour incubation, each well was diluted by taking 50 μl culture into 450 μl of MH broth. A 50 μl aliquot of each dilution was plated on blood agar. This serial dilution step was repeated seven times for each well to reach countable numbers of colonies on the blood agar plates.

[4] = Particle size distribution by laser light diffraction; assay type: physicochemical
Experimental: The particle size distribution (PSD) D10, D50, and D90 values for each sample were defined as particle diameters at the 10th, 50th, and 90th percentile and the span value was calculated according to Equation 2: […]
PSD analysis by laser light diffraction: PSDs were determined using a Sympatec Helos equipped with a Cuvette module (System-Partikel-Technik GmbH, Clausthal-Zellerfeld, Germany). Data were analyzed using the Sympatec WINDOX software. For each measurement, per a previously optimized method, about 2 mg of powder was dispersed in 0.5 mL of 0.1% (w/v) sodium dodecyl sulfate in water and the sample was sonicated for 5 min. […] After the reference measurement, 50 μL aliquots of the sonicated suspension were added to the cell to achieve optical concentrations of between 10 to 20% and the total of six measurements were performed on each sample. Formulations immediately following air-jet milling (25IBU10.1, 25IBU10.2) and after 6 months (25IBU10.1**, 25IBU10.2**) stored at RT (IBU10.1), or at −80° C. (IBU10.2) were analyzed.
PSDs were determined using a Sympatec Helos equipped with a Cuvette module (System-Partikel-Technik GmbH, Clausthal-Zellerfeld, Germany). Data were analyzed using the Sympatec WINDOX software. For each measurement per a previously optimized method, about 2 mg of powder was dispersed in 0.5 mL of 0.1% (w/v) SLS in water and the sample was sonicated for 5 minutes. […] After the reference measurement, 50 μL aliquots of the sonicated suspension were added to the cell to achieve optical concentrations of between 10 to 20% and the total of six measurements were performed on each sample. Analyzed samples included: unprocessed IBU and IND as well as the milled samples from different sections of the jet mill including the tube after grinding chamber (bfC), the cyclone (C), the collection vessel adapter (D), the collection bag adapter (E), the collection vessel (G) and the collection bag (H) for each run. The span value was calculated according to Equation 2.
To estimate the overall D10, D50, and D90 values for the combined recovered fractions associated with each run, stacked bar charts were graphed and analyzed to determine the yield normalized cumulative PSDs. Each stacked bar corresponded to a particle size bin and its height corresponded to the volume density distributions' weighted averages by the yield for each segment of the jet mill. The D10, D50, and D90 values for the normalized cumulative PSDs were the particle sizes corresponding to the 10, 50, and 90% area of the stacked bar chart respectively.
Tween 20 and sodium lauryl sulfate (SLS) were purchased from Fisher Scientific (Fisher Scientific, Pittsburgh, PA, USA), and dH2O was used for preparing solutions. […] A reference measurement was done in 0.1% (v/v) Span 85 in light mineral oil. After a reference measurement, aliquots of […] of sonicated suspension were added to achieve optical concentrations from 10 to 20% for a total of six measurements.
Furthermore, D10, D50, and D90 values for each sample were defined as particle diameters at the 10th, 50th, and 90th percentile of the PSD. Span was calculated according to Equation 2. Normalized cumulative PSDs were composed of yield-normalized distributions, where they were depicted as stacked bar charts. D10, D50, and D90 values for normalized cumulative PSDs were calculated by approximating particle sizes associated with 10%, 50%, and 90% area of the stacked bar chart.

[5] = Brunauer-Emmett-Teller specific surface area; assay type: physicochemical; settings: for SSA: N = 3
Experimental: Brunauer-Emmett-Teller: Surface area (SA) was evaluated via a single-point BET method using a Monosorb® surface area analyzer (Quantrachrome Instruments; FL, USA) following 24 hour outgassing with helium at room temperature (RT) before each measurement in triplicate on a known powder mass (m). SSA was calculated using Equation 3: […]
Brunauer-Emmett-Teller (BET) specific surface area (SSA) measurements were taken. Surface area (SA) was evaluated via a single-point BET method using a Monosorb® surface area analyzer (Quantrachrome Instruments; FL, USA) following 24 hour outgassing with helium at room temperature before each measurement in triplicates. Samples masses (m) were at least 50 mg for the jet-milled powders depending on availability and 500 mg for the unprocessed samples. SSA was calculated according to the following formula: […]

[6] = Helium pycnometry true density; assay type: physicochemical; settings: N = 3
Experimental: Helium pycnometry: True densities were measured using an MVP-D160-E multipycnometer (Quantrachrome Instruments; FL, USA) equipped with the micro cell and adapter. Measurements were conducted in triplicates. Before pressure measurements, the multipycnometer was purged with helium gas according to the manufacturer's recommendations.
True densities were measured using a MVP-D160-E multipycnometer (Quantrachrome Instruments; FL, USA). For density measurements, the micro cell and the micro cell adapter were used, and samples weighed at least 0.1 g for the jet-milled powders depending on availability and at least 0.6 g for the unprocessed powders.

[7] = Bulk and tapped density, compressibility index and Hausner ratio; assay type: physicochemical
Experimental: In this modified method, a 10 mL graduated cylinder fitted with a molded adapter substituted the 100 mL graduated cylinder in the tapped density tester. The compressibility index (CI) and Hausner ratio (HR) calculations were performed according to the following formulas: The tapped density (rT) calculations were performed using a tapped density tester (Agilent Technologies, Santa Clara, CA, USA) with a modified method from the USP for a small mass of powder. In this modified method, a 10 mL graduated cylinder fitted with a molded adapter substituted the 100 mL graduated cylinder for the calculations of the bulk density (rB) and the use in the tapped density tester. The compressibility index (CI) and the Hausner ratio (HR) calculations were performed according to the following formulas: […]

[8] = Angle of repose (USP method); assay type: physicochemical; settings: N = 3
Experimental: Angle of repose: Angles of repose were measured in triplicate according to the United States Pharmacopoeia (USP) method. Images of the powder mounds were taken using a digital camera and were analyzed using the ImageJ software (Wayne Rasband, Research Services Branch, National Institute of Mental Health, Bethesda, MD, USA). […]

[9] = Karl-Fischer moisture analysis; assay type: physicochemical; settings: N = 3
Experimental: Karl-Fischer moisture analysis was performed. The moisture content of the unprocessed and jet-milled powders were measured in triplicates using a Photovolt Aqua-test™ 2010a Moisture Analyser (a.k.a. The CSC Aquapal III, CSC Scientific Inc., Fairfax, VA, USA). Powder moisture contents were calculated by subtracting the moisture content in 1 mL of anhydrous methanol (Fisher Scientific, Pittsburgh, PA, USA) from the moisture content reading from 5 mg powder dissolved in 1 mL of anhydrous methanol.

[10] = tested on: methicillin-resistant Staphylococcus aureus (strain MRSA 0646); assay: Minimum inhibitory concentration (MIC); assay type: cell-based
Experimental: as §1

[11] = tested on: methicillin-resistant Staphylococcus aureus (strain MRSA 0646); assay: Checkerboard assay with ibuprofen
Experimental: A method for checkerboard assay includes the following: The bacteria were diluted in the standard MH broth to a concentration of 5×10^5 in 100 μL, which was added to each well of a 96-well plate. Aztreonam, ceftazidime and vancomycin solutions were prepared from 10 mg/mL stocks in MH broth. […] The plates were incubated and read as noted for the MIC assay. Again, each triplicate was performed at least twice.
Interaction are defined as synergistic if the FIC index is <1, additive if the FIC index is =1 and antagonistic if the FIC index is >1.

[12] = collection bag from jet-milled DFNa, cyclone from jet-milled DF
[13] = normalized cumulative particle size distribution of jet-milled powder
[14] = collection bag fraction or stock, Table 8
[15] = fraction used for testing (IBU collection bag, IND cyclone) or unprocessed powder

Row | MIC [2] | MIC [3] | MIC (with ibuprofen) [3] | Compound | diameters of the zones of inhibition [1] | D10 [4, 12] | D90 [4, 12] | Span [4, 12] | D10 [4, 13] | D90 [4, 13] | Span [4, 13] | D10 ([4]; unprocessed) | D90 ([4]; unprocessed) | Span ([4]; unprocessed) | SSA [5] | ρ (true density) [6] | CI [7] | HR [7] | ρT (tapped density) [7] | ρβ (bulk density) [7] | Angle of Repose [8] | also measured
1 | 4 µg/mL (≈ 9.19 µM) | 2 µg/mL | 2 (50) μg/mL | C[C@H]1[C@H](NC(=O)/C(=N\OC(C)(C)C(=O)O)c2csc(N)n2)C(=O)N1S(=O)(=O)O [Aztreonam, aztreonam] | significantly increased |  |  |  |  |  |  |  |  |  |  |  |  |  |  |  |  | CFU counts (PA HP3; 1 μg/mL aztreonam with 50 or 100 μg/mL ibuprofen vs aztreonam alone): decreased significantly
2 | 16 µg/mL (≈ 29.3 µM) | 4 µg/mL | 4 (50) μg/mL | CC(C)(O/N=C(\C(=O)N[C@@H]1C(=O)N2C(C(=O)[O-])=C(C[n+]3ccccc3)CS[C@H]12)c1csc(N)n1)C(=O)O [Ceftazidime, ceftazidime] | significantly increased |  |  |  |  |  |  |  |  |  |  |  |  |  |  |  |  | CFU counts (PA HP3; 2 or 4 μg/mL ceftazidime with 50 or 100 μg/mL ibuprofen vs ceftazidime alone): decreased significantly

Second part, the molecule before the results:

Row | Compound | MIC [2] | MIC [3] | MIC (with ibuprofen) [3] | diameters of the zones of inhibition [1] | D10 [4, 12] | D90 [4, 12] | Span [4, 12] | D10 [4, 13] | D90 [4, 13] | Span [4, 13] | D10 ([4]; unprocessed) | D90 ([4]; unprocessed) | Span ([4]; unprocessed) | SSA [5] | ρ (true density) [6] | CI [7] | HR [7] | ρT (tapped density) [7] | ρβ (bulk density) [7] | Angle of Repose [8] | also measured
3 | O=C(O)Cc1ccccc1Nc1c(Cl)cccc1Cl [DF, diclofenac] |  |  |  |  | 1.31 μm | 4.73 μm | 1.31 | 1.16 μm | 4.48 μm | 1.41 | 2.00 μm | 17.34 μm | 2.20 | 1.73 ± 0.18 m^2/g | 1.48 ± 0.01 g/mL | 46.67 | 1.88 | 0.30 g/mL | 0.16 g/mL | 34.5 ± 2.3 ° | Moisture content [9]: 0.78 ± 0.18%
4 | O=C(O)Cc1ccccc1Nc1c(Cl)cccc1Cl [DFNa, diclofenac sodium] |  |  |  |  | 1.06 μm | 5.52 μm | 1.64 | 1.29 μm | 6.53 μm | 1.61 | 2.02 μm | 42.69 μm | 2.08 | 1.37 ± 0.20 m^2/g | 1.51 ± 0.00 g/mL | 45.24 | 1.83 | 0.69 g/mL | 0.38 g/mL | 48.7 ± 5.5 ° | Moisture content [9]: 1.88 ± 0.20%
5 | CN[C@H](CC(C)C)C(=O)N[C@H]1C(=O)N[C@@H](CC(N)=O)C(=O)N[C@H]2C(=O)N[C@H]3C(=O)N[C@H](C(=O)N[C@H](C(=O)O)c4cc(O)cc(O)c4-c4cc3ccc4O)[C@H](O)c3ccc(c(Cl)c3)Oc3cc2cc(c3O[C@@H]2O[C@H](CO)[C@@H](O)[C@H](O)[C@H]2O[C@H]2C[C@](C)(N)[C@H](O)[C@H](C)O2)Oc2ccc(cc2Cl)[C@H]1O [Vancomycin, vancomycin] |  |  |  |  |  |  |  |  |  |  |  |  |  |  |  |  |  |  |  |  | MIC [10]: 2 µg/mL (≈ 1.38 µM); MIC ([11]; Staphylococcus aureus, MRSA, read-out: MIC (with ibuprofen)): 1 µg/mL; FIC index ([11]; combination with ibuprofen, <1 synergistic): < 1; MIC (with ibuprofen) ([11]; with 50 μg/mL of ibuprofen): 1 (50) μg/mL
6 | COc1ccc2c(c1)c(CC(=O)O)c(C)n2C(=O)c1ccc(Cl)cc1 [unprocessed indomethacin, indomethacin] |  |  |  |  |  |  |  |  |  |  |  |  |  |  |  |  |  |  |  |  | D50 [4, 14]: 26.3 μm; D90 [4, 14]: 64.8 μm; Span [4, 14]: 2.3; Span [4, 15]: 2.25; median size (d50) [4, 15]: 26.3 μm; surface area [5]: 0.435±0.039 m^2/g; Compressibility Index (CI) [7]: 44.7; Hausner Ratio (HR) [7]: 1.81; bulk density [7]: 0.321 g/mL; tap density [7]: 0.580 g/mL
